Columns and labels:
[1] = biological target: wt GPR55 (Gα13 mutant H368Q) (Homo sapiens, UniProt Q9Y2T6); assay: BRET² G protein dissociation assay, wt GPR55 with Gα13-H368Q; type: cell-based; details: for BRET2 response, Mean (plotted, Fig. S4): GPR55-wt-G13-H368Q
Method: (§1) Next, we used a mutagenesis approach to further explore the Gα13 selectivity of GPR55. The striking difference in the sequence between the two G protein subtypes guided the design of four Gα13 mutants that are in close contact with GPR55 by replacing the residues with the respective Gα12 amino acid (L374^-4I, Q373^-5D, H368^-10Q, R331D). The mutants were tested individually for their ability to be activated by GPR55 using the same G protein dissociation assay. […] The single Gα13-mutants affected the potency of LPI and ML184 only to a minor extend compared to wt Gα13 (Supplementary Table S3).
(§2) G protein dissociation assays were performed according to the original protocols of the TRUPATH BRET² assay[47],[87] but with subtle modifications as previously described[61],[88],[89]. All reagents and cells were obtained from Thermo Fisher Scientific unless indicated otherwise. The coding sequences for the G protein biosensors[47] (Gα12-Rluc8, Gα13-Rluc8, wt Gβ3, and Gγ9-GFP), the wt GPR55, the construct used for cryo-EM (with GFP bearing a G67A mutation to disrupt fluorescence properties[48] for BRET² assays), GPR55 binding pocket mutants (G152^4.56F, G152^4.56W, N171^ECL2Q, N171^ECL2A, T176^5.33A, R253^6.62A), and the wt TBXA2R were codon-optimized for Homo sapiens, gene-synthesized, and sub-cloned into pcDNA^TM3.1(+) between NheI and HindIII restriction sites by GeneArt (Thermo Fisher Scientific). […] Freshly grown cells were washed with Dulbecco’s Balanced Salt Solution (DPBS, cat. #14200075) and detached using trypsin-ethylenediaminetetraacetic acid (trypsin-EDTA) (cat. #25300-062). Then, the cells were reconstituted to 500,000 cells per mL with fresh medium, and 1,000,000 cells were seeded into each well of a 6-well plate. After 3 h incubation at 37 °C and 5% CO2, adherent cells were transfected with 600 ng DNA (1:1:1:1 ratio of plasmid DNA for GPR55, wt Gβ3, Gγ9-GFP, and Gα12-Rluc8 or Gα13-Rluc8). Plasmid DNA was mixed with 1.5 µL Lipofectamine^TM 2000 (cat. #11668027) in Opti-MEM^TM medium (cat. #31985062) and incubated for 20 min. Then, the mixture was added to each well of the 6-well plate following 24 h incubation at 37 °C and 5% CO2. Transfected cells were washed with DPBS, detached using EDTA (Versene, cat. #15040066), and reconstituted into fresh medium at 500,000 cells mL^−1. From this suspension, 50,000 cells were seeded into each well of a white-bottom 96-well plate (Nunc^TM MicroWell^TM 96 wells, cat. #136101) following overnight incubation at 37 °C and 5% CO2. Then, the adherent cells were washed with assay medium [Hank’s balanced salt solution (HBSS, cat. #14065056) plus 20 mM HEPES pH 7.4 (cat. #15630056)] and finally reconstituted into 50 µL of the same medium. […] Methoxy e-Coelenterazine was used as luciferase substrate (Prolume Purple, NanoLight Technology, cat. #369), reconstituted at 1 mM in methanol and diluted to 37.5 µM with assay buffer (7.5 µM final assay concentration). The assay was started by the addition of 20 µL luciferase substrate to each well of the assay plate using a Multidrop^TM Combi reagent dispenser (Thermo Fisher Scientific), followed by 5 min incubation at room temperature. Then, 30 µL of agonist dilutions or DMSO control was added (final DMSO concentration 1.5%), followed by an additional 5 min incubation at room temperature. BRET² measurements were performed with a PHERAstar® FSX microplate reader (BMG LABTECH) using a BRET² filter (donor emission 370–450 nm, acceptor emission 500–530 nm) at the maximum fluorescence gain of 3600. BRET² ratios were calculated by dividing GFP emission signals from Rluc8 emission counts.

[2] = biological target: wt GPR55 (Gα13 mutant L374I) (Homo sapiens, UniProt Q9Y2T6); assay: BRET² G protein dissociation assay, wt GPR55 with Gα13-L374I; type: cell-based; details: for BRET2 response, Mean (plotted, Fig. S4): GPR55-wt-G13-L374I
Chain of wt GPR55 (Gα13 mutant L374I) (Q9Y2T6 whole entry, stated change not applied): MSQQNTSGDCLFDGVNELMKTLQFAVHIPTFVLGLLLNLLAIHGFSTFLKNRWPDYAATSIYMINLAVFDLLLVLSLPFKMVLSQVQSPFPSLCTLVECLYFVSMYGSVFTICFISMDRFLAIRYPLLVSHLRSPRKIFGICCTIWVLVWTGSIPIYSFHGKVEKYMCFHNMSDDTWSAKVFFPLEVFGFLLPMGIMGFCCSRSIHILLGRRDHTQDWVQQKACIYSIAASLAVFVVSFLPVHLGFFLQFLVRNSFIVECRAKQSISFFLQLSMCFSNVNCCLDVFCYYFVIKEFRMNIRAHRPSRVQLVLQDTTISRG
Chain of wt GPR55 (Gα13 mutant L374I) (Q14344 with tags, fused parts or gaps L374I partner): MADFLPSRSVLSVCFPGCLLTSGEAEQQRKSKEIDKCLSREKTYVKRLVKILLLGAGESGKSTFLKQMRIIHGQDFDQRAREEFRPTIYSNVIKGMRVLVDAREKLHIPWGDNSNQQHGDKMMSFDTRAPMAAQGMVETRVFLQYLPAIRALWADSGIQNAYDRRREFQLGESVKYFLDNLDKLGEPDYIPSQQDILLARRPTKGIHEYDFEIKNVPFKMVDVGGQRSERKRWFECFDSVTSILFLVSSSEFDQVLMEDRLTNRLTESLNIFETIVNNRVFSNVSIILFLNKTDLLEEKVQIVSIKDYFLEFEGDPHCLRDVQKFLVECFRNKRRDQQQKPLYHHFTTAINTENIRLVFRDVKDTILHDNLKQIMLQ
Chain of wt GPR55 (Gα13 mutant L374I) (P16520 whole entry partner): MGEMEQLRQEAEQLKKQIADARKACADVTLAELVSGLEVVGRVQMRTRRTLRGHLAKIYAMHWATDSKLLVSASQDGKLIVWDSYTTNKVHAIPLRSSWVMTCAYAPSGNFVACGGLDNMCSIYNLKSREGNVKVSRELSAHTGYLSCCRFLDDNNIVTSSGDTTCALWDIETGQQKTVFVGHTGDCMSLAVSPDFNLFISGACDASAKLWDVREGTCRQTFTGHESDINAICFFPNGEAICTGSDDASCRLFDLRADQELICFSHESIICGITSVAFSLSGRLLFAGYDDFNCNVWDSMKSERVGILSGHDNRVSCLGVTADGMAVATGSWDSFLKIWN
Chain of wt GPR55 (Gα13 mutant L374I) (O14610 1-66 partner limits assumed): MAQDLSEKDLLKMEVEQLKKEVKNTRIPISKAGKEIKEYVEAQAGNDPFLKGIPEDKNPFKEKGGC
Method: as §1, §2

GPR55 = system: GPR55; parameters: method as in PMID 21534610; details: β-arrestin recruitment assays; read-out: reported potency; cited from earlier work
[3] = biological target: wt GPR55 (Gα13 mutant R331D) (Homo sapiens, UniProt Q9Y2T6); assay: BRET² G protein dissociation assay, wt GPR55 with Gα13-R331D; type: cell-based; details: for BRET2 response, Mean (plotted, Fig. S4): GPR55-wt-G13-R331D
Chain of wt GPR55 (Gα13 mutant R331D) (Q9Y2T6 whole entry, stated change not applied): as the sequence (Q9Y2T6 whole entry, stated change not applied) above
Chain of wt GPR55 (Gα13 mutant R331D) (Q14344 whole entry R331D partner): as the sequence (Q14344 with tags, fused parts or gaps L374I partner) above, with R331D, I374L counted along it
Chain of wt GPR55 (Gα13 mutant R331D) (P16520 whole entry partner): as the sequence (P16520 whole entry partner) above
Chain of wt GPR55 (Gα13 mutant R331D) (O14610 1-66 partner limits assumed): as the sequence (O14610 1-66 partner limits assumed) above
Method: as §1, §2

[4] = biological target: wt GPR55 (Gα13 mutant Q373D) (Homo sapiens, UniProt Q9Y2T6); assay: BRET² G protein dissociation assay, wt GPR55 with Gα13-Q373D; type: cell-based; details: for BRET2 response, Mean (plotted, Fig. S4): GPR55-wt-G13-Q373D
Chain of wt GPR55 (Gα13 mutant Q373D) (Q9Y2T6 whole entry, stated change not applied): as the sequence (Q9Y2T6 whole entry, stated change not applied) above
Chain of wt GPR55 (Gα13 mutant Q373D) (Q14344 with tags, fused parts or gaps Q373D partner): as the sequence (Q14344 with tags, fused parts or gaps L374I partner) above, with Q373D, I374L counted along it
Chain of wt GPR55 (Gα13 mutant Q373D) (P16520 whole entry partner): as the sequence (P16520 whole entry partner) above
Chain of wt GPR55 (Gα13 mutant Q373D) (O14610 1-66 partner limits assumed): as the sequence (O14610 1-66 partner limits assumed) above
Method: as §1, §2

Chain of wt GPR55 (Gα13 mutant H368Q) (Q9Y2T6 whole entry, stated change not applied): as the sequence (Q9Y2T6 whole entry, stated change not applied) above
Chain of wt GPR55 (Gα13 mutant H368Q) (Q14344 with tags, fused parts or gaps H368Q partner): as the sequence (Q14344 with tags, fused parts or gaps L374I partner) above, with H368Q, I374L counted along it
Chain of wt GPR55 (Gα13 mutant H368Q) (P16520 whole entry partner): as the sequence (P16520 whole entry partner) above
Chain of wt GPR55 (Gα13 mutant H368Q) (O14610 1-66 partner limits assumed): as the sequence (O14610 1-66 partner limits assumed) above

## Cc1cccc(N2CCN(C(=O)c3cc(S(=O)(=O)N(C)C)ccc3N3CCCC3)CC2)c1C [ML184, 3-[[4-(2,3-dimethylphenyl)-1-piperazinyl]carbonyl]-N,N-dimethyl-4-(1-pyrrolidinyl)benzenesulfonamide]
[1]; concentration 300 pM
  BRET2 response, Mean (plotted, Fig. S4): -0.005683
[1]; concentration 1e-9 M
  BRET2 response, Mean (plotted, Fig. S4): -0.005417
[1]; concentration 3e-9 M
  BRET2 response, Mean (plotted, Fig. S4): -0.01235
[1]; concentration 1e-8 M
  BRET2 response, Mean (plotted, Fig. S4): -0.02205
[1]; concentration 3e-8 M
  BRET2 response, Mean (plotted, Fig. S4): -0.02877
[1]; concentration 1e-7 M
  BRET2 response, Mean (plotted, Fig. S4): -0.03593
[1]; concentration 3e-7 M
  BRET2 response, Mean (plotted, Fig. S4): -0.04192
[1]; concentration 1e-6 M
  BRET2 response, Mean (plotted, Fig. S4): -0.04487
[1]; concentration 3e-6 M
  BRET2 response, Mean (plotted, Fig. S4): -0.0483
[1]; concentration 1e-5 M
  BRET2 response, Mean (plotted, Fig. S4): -0.05252
[1]; concentration 3e-5 M
  BRET2 response, Mean (plotted, Fig. S4): -0.05477
[1]; wt GPR55, Gα13-H368Q
  EC50: 29.5 nM
[1]; wt GPR55, Gα13-H368Q, 30 µM ligand, same normalization, read-out: Efficacy ± SEM (%)
  Emax at 30 µM: 101 ± 4%
[2]; concentration 300 pM
  BRET2 response, Mean (plotted, Fig. S4): -0.00585
[2]; concentration 1e-9 M
  BRET2 response, Mean (plotted, Fig. S4): -0.001933
[2]; concentration 3e-9 M
  BRET2 response, Mean (plotted, Fig. S4): -0.00955
[2]; concentration 1e-8 M
  BRET2 response, Mean (plotted, Fig. S4): -0.02387
[2]; concentration 3e-8 M
  BRET2 response, Mean (plotted, Fig. S4): -0.04258
[2]; concentration 1e-7 M
  BRET2 response, Mean (plotted, Fig. S4): -0.06613
[2]; concentration 3e-7 M
  BRET2 response, Mean (plotted, Fig. S4): -0.07745
[2]; concentration 1e-6 M
  BRET2 response, Mean (plotted, Fig. S4): -0.0833
[2]; concentration 3e-6 M
  BRET2 response, Mean (plotted, Fig. S4): -0.08843
[2]; concentration 1e-5 M
  BRET2 response, Mean (plotted, Fig. S4): -0.09448
[2]; concentration 3e-5 M
  BRET2 response, Mean (plotted, Fig. S4): -0.09637
[2]; wt GPR55, Gα13-L374I
  EC50: 36.3 nM
[2]; wt GPR55, Gα13-L374I, 30 µM ligand, same normalization, read-out: Efficacy ± SEM (%)
  Emax at 30 µM: 84 ± 1%
GPR55
  EC50: 260 nM
[3]; concentration 300 pM
  BRET2 response, Mean (plotted, Fig. S4): -0.00035
[3]; concentration 1e-9 M
  BRET2 response, Mean (plotted, Fig. S4): -0.0002667
[3]; concentration 3e-9 M
  BRET2 response, Mean (plotted, Fig. S4): -0.009133
[3]; concentration 1e-8 M
  BRET2 response, Mean (plotted, Fig. S4): -0.02147
[3]; concentration 3e-8 M
  BRET2 response, Mean (plotted, Fig. S4): -0.04232
[3]; concentration 1e-7 M
  BRET2 response, Mean (plotted, Fig. S4): -0.06272
[3]; concentration 3e-7 M
  BRET2 response, Mean (plotted, Fig. S4): -0.07305
[3]; concentration 1e-6 M
  BRET2 response, Mean (plotted, Fig. S4): -0.07957
[3]; concentration 3e-6 M
  BRET2 response, Mean (plotted, Fig. S4): -0.0831
[3]; concentration 1e-5 M
  BRET2 response, Mean (plotted, Fig. S4): -0.08698
[3]; concentration 3e-5 M
  BRET2 response, Mean (plotted, Fig. S4): -0.08977
[3]; wt GPR55, Gα13-R331D
  EC50: 33.9 nM
[3]; wt GPR55, Gα13-R331D, 30 µM ligand, same normalization, read-out: Efficacy ± SEM (%)
  Emax at 30 µM: 89 ± 3%
[4]; concentration 300 pM
  BRET2 response, Mean (plotted, Fig. S4): -0.0016
[4]; concentration 1e-9 M
  BRET2 response, Mean (plotted, Fig. S4): -0.008467
[4]; concentration 3e-9 M
  BRET2 response, Mean (plotted, Fig. S4): -0.01797
[4]; concentration 1e-8 M
  BRET2 response, Mean (plotted, Fig. S4): -0.03595
[4]; concentration 3e-8 M
  BRET2 response, Mean (plotted, Fig. S4): -0.05377
[4]; concentration 1e-7 M
  BRET2 response, Mean (plotted, Fig. S4): -0.06678
[4]; concentration 3e-7 M
  BRET2 response, Mean (plotted, Fig. S4): -0.07328
[4]; concentration 1e-6 M
  BRET2 response, Mean (plotted, Fig. S4): -0.07808
[4]; concentration 3e-6 M
  BRET2 response, Mean (plotted, Fig. S4): -0.08238
[4]; concentration 1e-5 M
  BRET2 response, Mean (plotted, Fig. S4): -0.08622
[4]; concentration 3e-5 M
  BRET2 response, Mean (plotted, Fig. S4): -0.08798
[4]; wt GPR55, Gα13-Q373D
  EC50: 17 nM
[4]; wt GPR55, Gα13-Q373D, 30 µM ligand, same normalization, read-out: Efficacy ± SEM (%)
  Emax at 30 µM: 94 ± 7%

From paper PMC11861906, “Structural basis for lipid-mediated activation of G protein-coupled receptor GPR55” (Nature Communications, 2025)
